For the assay, the system named is oligodendrocyte precursors (OPCs). As to the kind of experiment: OPC proliferation in culture with recombinant TGM2, BrdU/PDGFRα double immunostaining. The following applies: 2 nM recombinant TGM2, 24 hrs. It counts as cell-based, mouse. On the procedure: FIG. 14A depicts a TGM2 western blot on acutely isolated microglia, OPCs, astrocytes and oligodendrocytes. β-actin was used as loading control. FIG. 14B depicts representative images of BrdU (white) and PDGFRα (light gray) double immunostaining on OPC cultured for 24 hrs in proliferation media in the presence and absence of 2 nM recombinant TGM2. Scale bar, 100 μm. FIG. 14C depicts quantification of the percentage of BrdU^+ of total PDGFRα^+ OPCs. *P=0.0492, paired t-test, N=3 per genotype. Error bars are means±s.e.m.
To investigate whether TGM2 directly regulates OPC proliferation in a GPR56-dependent manner, OPCs derived from P5 Gpr56^+/− or Gpr56^−/− pups were cultured in the presence or absence of human recombinant TGM2 (FIGS. 15A and 15B) with the presence of BrdU. The cells were double immunostained for PDGFRα and BrdU (FIG. 14B).

Regarding Transglutaminase 2 [TG2], the “OPC proliferation (percentage of BrdU+ of total PDGFRα+ OPCs)” value is given as “significantly increased” (proliferation media, OPCs printed as Gpr56−/− (first mention; cultures were Gpr56+/− or Gpr56−/−)) and “attenuated” (Gpr56−/− OPCs (second mention)).

The values above are taken from patent US12358959B2, “Compositions and methods for oligodendrocyte development” (CHILDREN'S MEDICAL CENTER CORPORATION, priority 2016, dated 2025).
